target: T1, MAT2A homodimer (Homo sapiens, UniProt P31153); assay: MAT2A biochemical assay (liberated phosphate, PiColorLock Gold); conditions: Table 5a; MAT2A biochemical assay; read-out: Enzyme Inhibition
T1 construct: inferred from the Ni sepharose purification and imidazole elution; made in house; host or cells: SF9 insect cells, recombinant baculovirus (Bac to Bac, pFASTBAC1)
Experimental: Mat2A protein was expressed by recombinant baculovirus in SF9 infected cells using the Bac to Bac system cloned into the pFASTBAC1 vector (Invitrogen, Carlsbad, Calif.). Recombinant MAT2A was isolated from the cell lysate of 150 g of infected cells using HP Ni sepharose column chromatography. Recombinant MAT2A homodimer was eluted with 250 and 500 mM imidazole, and fractions containing MAT2A were identified by sodium dodecyl sulfate polyacrylamide gel electrophoresis and pooled.
Test compound was prepared in 100% dimethyl sulfoxide (DMSO) at 50× the desired final concentration. A 1 μL volume of compound dilution was added to 40 μL of enzyme dilution and the mixture was allowed to equilibrate for 60 minutes at 25° C. The enzymatic assay was initiated by the addition of 10 μL of substrate mix (500 μM ATP, pH 7.0, 400 μM L-methionine in 1× assay buffer), and the mixture was incubated for a further 60 minutes at 25° C. The reaction was halted and the liberated phosphate released by the enzyme in stoichiometric amounts by the production of S-adenosyl methionine (SAM) was measured using the PiColorLock Gold kit (Innova Biosciences, UK). Absolute product amounts were determined by comparison to a standard curve of potassium phosphate buffer, pH 8.0.

T1 sequence (P31153 whole entry): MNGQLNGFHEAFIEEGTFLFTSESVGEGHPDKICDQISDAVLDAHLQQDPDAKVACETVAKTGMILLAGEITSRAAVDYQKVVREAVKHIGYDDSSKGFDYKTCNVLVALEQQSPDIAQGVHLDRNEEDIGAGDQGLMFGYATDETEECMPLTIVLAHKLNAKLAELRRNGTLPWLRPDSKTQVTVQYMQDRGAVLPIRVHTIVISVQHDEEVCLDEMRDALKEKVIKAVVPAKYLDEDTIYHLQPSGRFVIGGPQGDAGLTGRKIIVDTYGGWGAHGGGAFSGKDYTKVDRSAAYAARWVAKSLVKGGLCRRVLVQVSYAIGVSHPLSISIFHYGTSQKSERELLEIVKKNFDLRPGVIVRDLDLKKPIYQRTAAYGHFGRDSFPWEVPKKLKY

IC50	Compound
1 to 10 µM	CCOc1ccc2c(n1)N(c1ccc(OC)cc1)C(=O)N(c1ccc(NC)cc1)C2 [Example 121, 7-ethoxy-1-(4-methoxyphenyl)-3-(4-(methylamino)phenyl)-3,4-dihydropyrido[2,3-d]pyrimidin-2(1H)-one]
0.1 to 1 µM	COc1ccc(N2Cc3cnc(NCC(F)(F)F)nc3N(c3ccc4c(c3)CCO4)C2=O)cc1 [Example 253, 1-(2,3-dihydrobenzofuran-5-yl)-3-(4-methoxyphenyl)-7-((2,2,2-trifluoroethyl)amino)-3,4-dihydropyrimido[4,5-d]pyrimidin2(1H)-one]
< 0.1 µM	COc1ccc(N2C(=O)N(c3ccc4nncn4c3)Cc3cnc(NCC(F)(F)F)nc32)cc1 [Example 229, 3-([1,2,4]triazolo[4,3-a]pyridin-6-yl)-1-(4-methoxyphenyl)-7-((2,2,2-trifluoroethyl)amino)-3,4-dihydropyrimido[4,5-d]pyrimidin-2(1H)-one]
0.1 to 1 µM	CCOc1ccc2c(n1)N(c1ccc(OC)cc1)C(=O)N(c1ccc(C(=O)NC)cc1)C2 [Example 126, 4-(7-ethoxy-1-(4-methoxyphenyl)-2-oxo-1,2-dihydropyrido[2,3-d]pyrimidin-3(4H)-yl)-N-methylbenzamide]
< 0.1 µM	Cc1ccc(N2C(=O)N(c3ccc4nn(C)cc4c3)Cc3cnc(NCC(F)(F)F)nc32)cn1 [Example 433, 3-(2-methyl-2H-indazol-5-yl)-1-(6-methylpyridin-3-yl)-7-((2,2,2-trifluoroethyl)amino)-3,4-dihydropyrimido[4,5-d]pyrimidin-2(1H)-one]
1 to 10 µM	O=C1N(c2ccnnc2)Cc2cnc(NCC(F)(F)F)nc2N1c1ccc(OC(F)F)cc1 [Example 224, 1-(4-(difluoromethoxy)phenyl)-3-(pyridazin-4-yl)-7-((2,2,2-trifluoroethyl)amino)-3,4-dihydropyrimido[4,5-d]pyrimidin-2(1H)-one]
0.1 to 1 µM	[2H]C([2H])([2H])Oc1ccc(N2C(=O)N(c3ccc4nn(C)cc4c3)Cc3ccc(OCCC(F)(F)F)nc32)cc1 [Example 166, 1-(4-methoxy-d3-phenyl)-3-(2-methyl-2H-indazol-5-yl)-7-(3,3,3-trifluoropropoxy)-3,4-dihydropyrido[2,3-d]pyrimidin-2(1H)-one]
0.1 to 1 µM	COc1ccc(N2Cc3cnc(NCC(F)(F)F)nc3N(c3ccc(C(C)C)cc3)C2=O)cc1 [Example 212, 1-(4-isopropylphenyl)-3-(4-methoxyphenyl)-7-((2,2,2-trifluoroethyl)amino)-3,4-dihydropyrimido[4,5-d]pyrimidin-2(1H)-one]
0.1 to 1 µM	O=C1N(c2ccc3ncccc3c2)Cc2cnc(NCC(F)(F)F)nc2N1c1ccc(OC(F)F)cc1 [Example 227, 1-(4-(difluoromethoxy)phenyl)-3-(quinolin-6-yl)-7-((2,2,2-trifluoroethyl)amino)-3,4-dihydropyrimido[4,5-d]pyrimidin-2(1H)-one]
1 to 10 µM	CCN(CC)c1ccc2c(n1)N(c1ccc(OC)cc1)C(=O)N(c1ccc3nn(C)cc3c1)C2 [Example 159, 7-(diethylamino)-1-(4-methoxyphenyl)-3-(2-methyl-2H-indazol-5-yl)-3,4-dihydropyrido[2,3-d]pyrimidin-2(1H)-one]
1 to 10 µM	COc1ccc(N2Cc3cnc(SC)nc3N(c3ccc(C)cc3)C2=O)cc1 [Example 244, 3-(4-methoxyphenyl)-7-(methylthio)-1-(p-tolyl)-3,4-dihydropyrimido[4,5-d]pyrimidin-2(1H)-one]
< 0.1 µM	COc1ccc(N2Cc3cnc(NCC(F)(F)F)nc3N(c3ccc(SC)cc3)C2=O)cc1 [Example 198, 3-(4-methoxyphenyl)-1-(4-(methylthio)phenyl)-7-((2,2,2-trifluoroethyl)amino)-3,4-dihydropyrimido[4,5-d]pyrimidin-2(1H)-one]
0.1 to 1 µM	COCc1ccc(N2C(=O)N(c3ccc(OC)cc3)Cc3cnc(NCC(F)(F)F)nc32)cc1 [Example 209, 1-(4-(methoxymethyl)phenyl)-3-(4-methoxyphenyl)-7-((2,2,2-trifluoroethyl)amino)-3,4-dihydropyrimido[4,5-d]pyrimidin-2(1H)-one]
0.1 to 1 µM	Cn1cc2cc(N3Cc4nnc(NCC(F)(F)F)cc4N(c4ccc(OC(F)F)cc4)C3=O)ccc2n1 [Example 293]
0.1 to 1 µM	COc1ccc(N2Cc3cnc(NCC(F)(F)F)nc3N(c3ccc(S(C)(=O)=O)cc3)C2=O)cc1 [Example 189, 3-(4-methoxyphenyl)-1-(4-(methylsulfonyl)phenyl)-7-((2,2,2-trifluoroethyl)amino)-3,4-dihydropyrimido[4,5-d]pyrimidin-2(1H)-one]
1 to 10 µM	CCOc1cc2c(nn1)CN(c1ccc3nn(C)cc3c1)C(=O)N2c1ccc(OC(F)F)cc1 [Example 292, 5-(4-(difluoromethoxy)phenyl)-3-ethoxy-7-(2-methyl-2H-indazol-5-yl)-7,8-dihydropyrimido[5,4-c]pyridazin-6(5H)-one]

Continued, compound first:

Compound	IC50
COc1ccc(-n2c(=O)c3cnc(NCC(F)(F)F)nc3n(-c3ccc(O)cc3)c2=O)cc1 [Example 262, 1-(4-hydroxyphenyl)-3-(4-methoxyphenyl)-7-((2,2,2-trifluoroethyl)amino)pyrimido[4,5-d]pyrimidine-2,4(1H,3H)-dione]	0.1 to 1 µM
COC(=O)Cc1ccc(N2C(=O)N(c3ccc(OC)cc3)Cc3cnc(NCC(F)(F)F)nc32)cc1 [Example 205, methyl 2-(4-(3-(4-methoxyphenyl)-2-oxo-7-((2,2,2-trifluoroethyl)amino)-3,4-dihydropyrimido[4,5-d]pyrimidin-1(2H)-yl)phenyl)acetate]	1 to 10 µM
COc1ccc(N2Cc3cnc(NCC(F)(F)F)nc3N(c3ccc(-c4ccc[nH]c4=O)cc3)C2=O)cc1 [Example 279, 3-(4-methoxyphenyl)-1-(4-(2-oxo-1,2-dihydropyridin-3-yl)phenyl)-7-((2,2,2-trifluoroethyl)amino)-3,4-dihydropyrimido[4,5-d]pyrimidin-2(1H)-one]	0.1 to 1 µM
COc1ccc(N2Cc3cnc(NCC(F)(F)F)nc3N(c3ccc(-c4cc[nH]c4)cc3)C2=O)cc1 [Example 280, 1-(4-(1H-pyrrol-3-yl)phenyl)-3-(4-methoxyphenyl)-7-((2,2,2-trifluoroethyl)amino)-3,4-dihydropyrimido[4,5-d]pyrimidin-2(1H)-one]	0.1 to 1 µM
COc1ccc(N2Cc3cnc(NCC(F)(F)F)nc3N(c3ccc(-c4cn[nH]c4)cc3)C2=O)cc1 [Example 211, 1-(4-(1H-pyrazol-4-yl)phenyl)-3-(4-methoxyphenyl)-7-((2,2,2-trifluoroethyl)amino)-3,4-dihydropyrimido[4,5-d]pyrimidin-2(1H)-one]	0.1 to 1 µM
COc1ccc(N2Cc3cnc(NCC4CC4)nc3N(c3ccncc3)C2=O)cc1 [Example 266]	1 to 10 µM
COc1ccc(N2Cc3cnc(NCC(F)(F)F)nc3N(c3ccc(OC)cn3)C2=O)cc1 [Example 257, 3-(4-Methoxyphenyl)-1-(5-methoxypyridin-2-yl)-7-(2,2,2-trifluoroethylamino)-3,4-dihydropyrimido[4,5-d]pyrimidin-2(1H)-one]	0.1 to 1 µM
COc1ccc(N2Cc3cnc(NCC(F)(F)F)nc3N(c3ccc(C4CC4O)cc3)C2=O)cc1 (stereo not shown) [Example 281, 1-(4-(2-hydroxycyclopropyl)phenyl)-3-(4-methoxyphenyl)-7-((2,2,2-trifluoroethyl)amino)-3,4-dihydropyrimido[4,5-d]pyrimidin-2(1H)-one]	0.1 to 1 µM
O=C1N(c2ccc3nccn3c2)Cc2cnc(NCC(F)(F)F)nc2N1c1ccc(C2CC2)cc1 [Example 213, 1-(4-cyclopropylphenyl)-3-(imidazo[1,2-a]pyridin-6-yl)-7-((2,2,2-trifluoroethyl)amino)-3,4-dihydropyrimido[4,5-d]pyrimidin-2(1H)-one]	< 0.1 µM
COc1ccc(N2Cc3cnc(NCC(F)(F)F)nc3N(c3ccc(-c4cn[nH]n4)cc3)C2=O)cc1 [Example 192, 1-(4-(2H-1,2,3-triazol-4-yl)phenyl)-3-(4-methoxyphenyl)-7-((2,2,2-trifluoroethyl)amino)-3,4-dihydropyrimido[4,5-d]pyrimidin-2(1H)-one]	0.1 to 1 µM
COc1ccc(N2Cc3cnc(NCC(F)(F)F)nc3N(c3ccc(O)nc3)C2=O)cc1 [Example 197, 1-(6-hydroxypyridin-3-yl)-3-(4-methoxyphenyl)-7-((2,2,2-trifluoroethyl)amino)-3,4-dihydropyrimido[4,5-d]pyrimidin-2(1H)-one]	1 to 10 µM

same assay, conditions: Table 5b; Additional Examples; read-out: Enzyme Inhibition

IC50	Compound
> 10 µM	COc1ccc(N2Cc3cnc(NCC(F)(F)F)nc3N(c3ccc(-c4ccccc4)cc3)C2=O)cc1
0.1 to 1 µM	COc1ccc(N2Cc3cnc(NCC(F)(F)F)nc3N(c3ccc(C(=O)N(C)C)cc3)C2=O)cc1
> 10 µM	COc1ccc(-n2c(=O)c3cnc(NCC(F)(F)F)nc3n(-c3ccc(OCc4ccccc4)cc3)c2=O)cc1
0.1 to 1 µM	COc1ccc(N2Cc3cnc(NCC(F)(F)F)nc3N(c3ccc(CC(C)O)cc3)C2=O)cc1 (stereo not shown)
> 10 µM	COc1ccc(N2Cc3cnc(NCC(F)(F)F)nc3N(c3ccc(C(=O)O)cc3)C2=O)cc1
> 10 µM	COc1ccc(N2Cc3cnc(-n4ccnc4)nc3N(c3ccc(O)cc3)C2=O)cc1
> 10 µM	COc1ccc(N2Cc3cnc(NCC(F)(F)F)nc3N(c3ccc(Cl)c(C(F)(F)F)c3)C2=O)cc1
